Where a SMILES comes first, the peptide text is derived from it. [ ]: non-standard residue; d: D form. The star is where a group is joined. Benzoyl(4-tBu) = CC(C)(C)c1ccc(C(=O)*)cc1; Lys(Et2) = CCN(CC)CCCC[C@H](N)C(=O)O
Target: BTK (Homo sapiens, UniProt Q06187)
Assay: biochemical
Details: read-out: BTK inhibition (%)

BTK, sequence (Q06187 402-655 limits assumed): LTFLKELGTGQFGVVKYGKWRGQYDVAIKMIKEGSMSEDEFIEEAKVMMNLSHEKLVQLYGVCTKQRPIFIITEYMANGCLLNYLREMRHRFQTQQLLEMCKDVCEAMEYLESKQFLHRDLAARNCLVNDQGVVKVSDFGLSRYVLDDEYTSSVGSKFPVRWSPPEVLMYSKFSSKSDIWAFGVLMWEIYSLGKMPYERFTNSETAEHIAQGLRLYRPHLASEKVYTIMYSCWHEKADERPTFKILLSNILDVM

Row | SMILES | inhibition at 10 µM
1 | Cl[Te]1(Cl)(Cl)OCCO1 [PCM-0215721] | 98.6%

Same assay, conditions: read-out: BTK inhibition (%), 0.75 uM BTK, […] probe 3l, 15 min preincubation

Row | inhibition at 10 µM | SMILES
2 | -17% | CN[C@H]1CN(c2ccc3c(=O)c(C(=O)O)cn(-c4nccs4)c3n2)C[C@@H]1OC [PCM-0215713]
3 | -2.8% | Nc1nccc(Oc2ccc3c(C(=O)Nc4cccc(C(F)(F)F)c4)cccc3c2)n1 [PCM-0215714]
4 | 11.6% | O=C(O)c1ccc(-c2ccc(/C=C3\SC(=S)N(Cc4ccccc4)C3=O)o2)cc1 [PCM-0215715]
5 | 1.5% | C[C@@H]1CC(=O)Nc2cccc(-c3ccc4c(c3)c(-c3cnn(C)c3)nn4C)c2N1 [PCM-0215716]
6 | -79.5% | COC(=O)[C@H](CC(C)C)NC(=O)c1ccc(NC[C@@H](N)CS)cc1-c1cccc2ccccc12 [PCM-0215717]
7 | -30.3% | Cn1c(=O)c(Oc2ccc(F)cc2F)cc2cnc(NC(CCO)CCO)nc21 [PCM-0215718]
8 | -9.3% | O=C(NCCCn1ccnc1)c1cc(-c2ccco2)on1 [PCM-0215720]
9 | 57.9% | CCN(CC)C[C@@H](O)CNc1ccc(NC[C@H]2CO2)c2c1C(=O)c1ccccc1C2=O [PCM-0215722]
10 | 57.9% | COc1cc2c(cc1OC(C)C)[C@H](c1ccc(Cl)cc1)N(c1ccc(N(C)CC3CCC(N4CCN(C)C(=O)C4)CC3)cc1)C(=O)C2 (some centres unmarked) [PCM-0215723]
11 | -0.7% | O=C(Nc1cccc(C(F)(F)F)c1)c1cccc2cc(Oc3cc(CO)ncn3)ccc12 [PCM-0215724]
12 | 16.2% | COc1cc(C(=O)N(CCCc2ccccc2)Cc2ccc(CC(=O)O)cc2)cc(OC)c1C [PCM-0215725]
13 | 10.8% | CN(C)C(=O)CCSC(SCCC(=O)O)c1cccc(/C=C/c2ccc3ccc(Cl)cc3n2)c1 (centres unmarked) [PCM-0215726]
14 | 30.9% | C[C@@H]1Cc2c([nH]c3ccccc23)[C@@H](c2c(F)cc(/C=C/C(=O)O)cc2F)N1CC(C)(C)F [PCM-0215727]
15 | 43.4% | Oc1cc(CNC(=S)/C=C/c2cc(O)c(O)c(Br)c2)cc(O)c1O [PCM-0215728]
16 | 79.3% | Cc1ccc(Nc2cc(N[C@@H]3CCCC[C@@H]3N)nnc2C(N)=O)nc1C [PCM-0215730]
17 | 22.4% | Cc1nnsc1C(=O)Nc1ccc(-n2nc(C(F)(F)F)cc2C(F)(F)F)cc1 [PCM-0215731]
18 | -6.9% | N#C/C(=C(\O)c1ccc(Cl)cc1Cl)c1nc2ccccc2c(=O)[nH]1 [PCM-0215733]
19 | 71.7% | Cc1cc(Nc2ncnc3ccc(NC4=NC(C)(C)CO4)cc23)ccc1Oc1ccn2ncnc2c1 [PCM-0215734]
20 | 24.7% | CC(C)c1c(-c2ccccc2)nc2c(C#N)c[nH]n2c1=O [PCM-0215735]
21 | 105% | Cc1ccc(C(=O)Nc2ccc(Oc3cc4cnn(C)c4cc3-c3cn[nH]c3)c(F)c2)c(=O)n1-c1ccc(F)cc1 [PCM-0215736]
22 | 37.9% | CC1(C)OCCn2c1nc1c(N3CCOCC3)nc(-c3cnc(N)nc3)nc12 [PCM-0215737]
23 | 92.7% | Cc1ccc(NS(=O)(=O)c2ccc3c(c2)C2C=CCC2C(c2ccc(C(=O)O)cc2)N3)cc1C (centres unmarked) [PCM-0215738]
24 | -31.7% | CCCNC(=O)[C@H]1O[C@@H]1C(=O)N[C@H](C(=O)N1CCC[C@H]1C(=O)OC)[C@@H](C)CC [PCM-0215739]
25 | 3.4% | CS(=O)(=O)Nc1ccc([N+](=O)[O-])cc1OC1CCCCC1 [PCM-0215740]
26 | -16.2% | CCN(CC)CCCC[C@H](NC(=O)[C@H](CC(C)C)NC(=O)[C@H](C)NC(=O)[C@H](Cc1ccccc1)NC(=O)c1ccc(C(C)(C)C)cc1)C(=O)N[C@@H](CO)C(=O)OC [PCM-0215741] ({Benzoyl(4-tBu)}-FAL[Lys(Et2)]S-OMe)

Row | inhibition at 10 µM | SMILES
27 | -1.5% | O=C(O)[C@@]1(CCCCCCOc2ccc(Cl)cc2)CO1 [PCM-0215742]
28 | 11.7% | CCN1C(=O)CNc2ncc(-c3ccc(-c4ncn[nH]4)nc3C)nc21 [PCM-0215743]
29 | -22.8% | CCNC(=O)Nc1ccc(-c2nc(N3CCOC[C@@H]3C)c3c(n2)C(C)(C)S(=O)(=O)C3)cc1 [PCM-0215744]
30 | 93.8% | CN1c2ccccc2C(=O)Nc2cnc(Nc3ccc(N4CCC(O)CC4)cc3)nc21 [PCM-0215745]
31 | 4.6% | Fc1ccc2c(/C=C/c3nn[nH]n3)c[nH]c2c1 [PCM-0215746]
32 | 57.1% | COc1ccc(-c2nc(-c3cc(C(F)(F)F)cc(C(F)(F)F)c3)n(Cc3ccc(C(N)=O)cc3)c2-c2ccc(OC)cc2)cc1 [PCM-0215748]
33 | -30.3% | C[C@@H](N)c1ccc(C(=O)Nc2ccnc3[nH]ccc23)cc1 [PCM-0215750]
34 | 6.9% | Cn1cc(C(=O)Nc2ccc3c(c2)OCCO3)c2ccccc2c1=O [PCM-0215752]
35 | 55.9% | COc1ccc(CC(=O)Nc2nc3c(s2)CCc2ccccc2-3)cc1OC [PCM-0215753]
36 | 13.8% | O=C(O)c1ccc2c3c1cccc3c(=O)n1c3ccccc3nc21 [PCM-0215754]
37 | 0% | CC#Cc1cncc(-c2ccc3c(c2)[C@@]2(N=C(C)C(N)=N2)C2(CCC(OC)CC2)C3)c1 (some centres unmarked) [PCM-0215755]
38 | 11.6% | C[C@]12CC[C@H]3[C@@H](CC=C4CC(O)CC[C@@]43C)[C@@H]1CC[C@@H]2C(O)CC(O)(C(F)(F)F)C(F)(F)F (some centres unmarked) [PCM-0215756]
39 | -1.5% | O=C(Nc1ccccc1-c1cn2c(CN3CC[C@@H](O)C3)csc2n1)c1ccc2ccccc2c1 [PCM-0215757]
40 | -10.8% | COc1cc2c(NC3CCN(C(C)C)CC3)nc(C3CCCCC3)nc2cc1OCCCN1CCCC1 [PCM-0215758]
41 | -25.5% | CCOC(=O)C1=C(C)NC(=S)NC1c1cccc(O)c1 (centres unmarked) [PCM-0215759]
42 | 15.4% | C[C@H](NC(=O)CCC(F)(F)F)C(=O)N[C@@H]1C(=O)N(CCO)c2ncccc2-c2ccccc21 [PCM-0215760]
43 | 7.7% | O=C(O)[C@H](O)Cc1ccc(O)c(O)c1 [PCM-0215761]
44 | 11.6% | CNCCN(C)Cc1cn[nH]c1-c1ccc(OC2CC(OCCC3CCOCC3)C2)cc1 (centres unmarked) [PCM-0215762]
45 | -11% | O=C1Nc2ccc(CN3C(=O)CSC3=O)cc2/C1=C/c1cc(CN2CCOCC2)c[nH]1 [PCM-0215763]
46 | 6.2% | N#Cc1ccc([C@H]2CCc3cncn32)c(F)c1 [PCM-0215764]
47 | 2.3% | COc1cn(-c2ccc(-n3cccn3)cc2F)nc(-c2ccnn2-c2ccccc2)c1=O [PCM-0215765]
48 | 13.1% | CC(N)=NCc1cccc(CN)c1 [PCM-0215766]
49 | 9.7% | CC(C)(O)CNc1ncc(-c2ccnc(Nc3ccncc3)n2)c(CC2CC2)n1 [PCM-0215768]
50 | 32.4% | CNc1ccc([N+](=O)[O-])c(Nc2ccc3[nH]ncc3c2)n1 [PCM-0215769]
51 | 82.6% | CN(CC(=O)N(Cc1ccc(C2CCCCC2)cc1)c1ccc(C(=O)O)c(O)c1)S(=O)(=O)c1c(F)c(F)c(F)c(F)c1F [PCM-0215770]

Row | inhibition at 10 µM | SMILES
52 | 70.3% | Cc1cc(O)c(-c2ccc([C@@H](C)CN)cc2)c2c1[nH]c(=O)c1sccc12 [PCM-0215772]
53 | -3.4% | C[C@H](CN(C)C)Oc1nc(Nc2cc3cccc(Cl)c3cn2)cnc1C#N [PCM-0215773]
54 | -23.2% | CC(Nc1nc(N2CCCC2)nc2ccccc12)c1ccccc1 (centres unmarked) [PCM-0215774]
55 | 32.4% | Cc1c(CN2CCC(Nc3ncnc4sc(CC(F)(F)F)cc34)CC2)ccc2[nH]c(C#N)cc12 [PCM-0215775]
56 | -16.2% | Cc1ccc(C=NNC(=O)c2ccccc2Oc2ccccc2)o1 [PCM-0215777]
57 | -11.6% | CC(C)(NS(=O)(=O)c1ccc2c(Cl)cnc(N=C(N)N)c2c1)C(=O)O [PCM-0215778]
58 | 19.3% | CN(CC(=O)N(Cc1ccc(C2CCCCC2)cc1)c1ccc(C(=O)NO)cc1)S(=O)(=O)c1c(F)c(F)c(F)c(F)c1F [PCM-0215779]
59 | 61.4% | CC(C)(C)c1cc(NC(=O)Nc2ccc(Oc3ccnc4[nH]c(=O)cnc34)cc2F)n(-c2ccccc2)n1 [PCM-0215780]
60 | -2.6% | c1ccc(CNCc2ccc(CN3CCCNCCNCCCNCC3)cc2)nc1 [PCM-0215781]
61 | 3.4% | CC(C)c1c2cc(-c3ccnc(NC4CCC(NC5CCOCC5)CC4)n3)ccc2nn1C (centres unmarked) [PCM-0215782]
62 | -3.1% | CC(C)C(C(=O)O)N1C(=O)/C(=C\c2ccc(Br)cc2)SC1=S (centres unmarked) [PCM-0215783]
63 | 54.8% | Cc1nn(C)c2nc(NNC(=O)Nc3cc(Cl)nc(Cl)c3)cc(C(C)C)c12 [PCM-0215784]
64 | 2.3% | Cc1nc2cccc(N)c2c(=O)n1C1CCC(=O)NC1=O (centres unmarked) [PCM-0215785]
65 | -6.2% | CCCCCCCCCCCCCC(=S)NCCCC[C@H](NC(=O)OCc1ccccc1)C(=O)Nc1ccccc1 [PCM-0215787]
66 | 91% | C=CC(=O)N1CC[C@@H](Oc2nc(Nc3ccc(N4CCC(N5CCN(C)CC5)CC4)cc3)c(C(N)=O)nc2CC)C1 [PCM-0215788]
67 | 30.1% | Fc1ccc(-c2c3cccc(C(F)(F)F)c3nn2Cc2ccc(F)cc2Cl)cc1 [PCM-0215789]
68 | -2.8% | CC(C)c1cnn2c(NCc3ccccc3-n3cccn3)nc(OC3CCCNC3)nc12 (centres unmarked) [PCM-0215792]
69 | 21.6% | CC(C(=O)Nc1cccc(N=Cc2c(O)ccc3ccccc23)c1)c1ccccc1 (centres unmarked) [PCM-0215794]
70 | -4.1% | C=C1CCC[C@]2(C)C=C3OC(=O)C(C)=C3C[C@@H]12 [PCM-0215796]
71 | -2.8% | O=c1[nH]ccc2c(S(=O)(=O)N3CCCNCC3)cccc12 [PCM-0215797]
72 | 66.2% | OC1CCC(Oc2cccc3cnc(Nc4ccc5nc[nH]c5c4)nc23)CC1 (centres unmarked) [PCM-0215798]
73 | 0.8% | O=c1[nH]nc2c3c(cccc13)NC(CN1Cc3ccccc3C1)=N2 [PCM-0215799]
74 | 12.4% | Cc1c(C)c(NCC(=O)N(C)C2CCN(Cc3ccc(C(N)=O)cc3)CC2)c(C)c(C)c1N [PCM-0215800]
75 | 27% | N=C1S/C(=C\c2ccc(-c3ccc4c(c3)C(=O)NC4=O)o2)C(=O)N1c1ccc(Br)cc1 [PCM-0215801]
76 | -2.1% | CC(C)Oc1ccc(-c2nn([C@@H](C)c3oc4ccc(F)cc4c(=O)c3-c3cccc(F)c3)c3ncnc(N)c23)cc1F [PCM-0215802]

Row | SMILES | inhibition at 10 µM
77 | COCC1(CO)C(=O)C2CCN1CC2 (centres unmarked) [PCM-0215751] | 0%
